Data: patent publication US8552052B2, “Use of diindolylmethane-related indoles for the treatment and prevention of respiratory syncytial virus associated conditions” (BioResponse, L.L.C., priority 2004, dated 2013)
“Also recorded” adds a separate entry of the source.

Key:
[1] = system: RSV infected A549 pulmonary epithelial cells; assay: Phosphohistone (H2A.X Phosphorylation) assay of apoptosis in RSV infected A549 cells; format: cell-based, human; conditions: 18 hour treatment, FIG. 1
Description: Cell Culture—A549 cells, a tumor cell line with properties of normal airway epithelial cells, were obtained from American Type Culture Collection (ATCC, Manassas, Va.) and incubated at 37° C. in 5% CO2. The cells were cultured in Eagle's minimum essential medium (MEM, Invitrogen) supplemented with 10% fetal bovine serum (HyClone, Logan, Utah) and […] gentamicin. The A549 cells were subcultured by harvesting in 0.12% trypsin no more than 20 times from stock originally designated at pass 70. To minimize effects of exogenous growth factors or cytokines in this system, the supplemented serum concentration was reduced to 0.5% 24 h prior to and during all experiments with RSV infection.
RSV Virus—RSV, strain A2, was obtained from Advanced Biotechnologies Inc. (Columbia, Md.) and was used directly as supplied for all experiments. The viral preparation was tested to have a TCID50 titer of ˜1×10^9 in Hep-2 cells at 7 days. […]
Cell Viability and Death Assays—Induction of Apoptosis by DIM in RSV infected A549 cell was measured according to a Phosphohistone Assay. […] The detection was done by LumiGLO™ chemiluminescent substrate and the plate was read in a microplate luminometer after 10-20 min. Luminescence indicated the extent of apoptosis in the sample examined.

bRSV = assay: Experimental bovine Respiratory Syncytial Virus (bRSV) infection in calves; format: in vivo, Male Jersey calves; conditions: vs vehicle only treated positive control animals
[2] = system: Human Papilloma Virus (HPV) oncogene altered cervical cancer cell lines; conditions: cited from earlier work
[3] = system: apoptosis-specific nucleosomes; assay: Nucleosome ELISA in lung of RSV infected BALB/c mice; format: in vivo; conditions: oral and subcutaneous DIM, FIG. 5B
Description: The Following Experimental BALB/c Groups and Treatment Protocol Using DIM were Studied: • 1. RSV infected positive control group, infected with RSV and injected subcutaneously (SC) once daily with DMSO/Phosphate Buffered Saline (PBS) vehicle. • 2. RSV infected, Low dose Parenteral DIM group (15 mg/kg/day), injected SC once daily with DIM suspension • 3. RSV infected, High dose DIM Group (150 mg/kg/day), injected SC once daily with DIM suspension • 4. RSV infected, orally treated DIM group (250 mg/kg/day from absorption enhanced DIM [Example 6.1]), added to powdered feed • 5. Uninfected negative control group, nasally administered vehicle only, and injected subcutaneously (SC) once daily with DMSO/PBS vehicle
Mouse treatment, infection and harvest. Intranasal application of RSV in BALB/c mice followed an established procedure (Bitko et al., 2005, Nat Med. 11(1):50-5) and causes predictable pulmonary disease and inflammation. For RSV infection, RSV stock was diluted such that each mouse was given 10^7 pfu (plaque forming unit) of the virus intranasally. […]
Nucleosomes released in the cytoplasm during apoptosis were detected by a nucleosome ELISA assay kit (Calbiochem Nucleosome ELISA kit, Cat. No. QIA25, San Diego, Calif.) according to the manufacturer's protocol (User Protocol Q1A25 Rev. 28 Sep. 2005 RFH).

[4] = lung tissue; cited from earlier work

c1ccc2c(Cc3c[nH]c4ccccc34)c[nH]c2c1 [DIM, 3,3′-diindolylmethane]
cells undergoing apoptosis ([1]; DIM 70, 210, 700 nM, LY294002 2 and 5 μM): accelerated apopotosis in RSV infected cells; also recorded: significant, dose-related increase in cells undergoing apoptosis | Promotion of apoptosis by DIM compared with LY294002 ([1]; nM DIM): more potent than that seen with LY294002 | evidence of active bRSV infection (bRSV): less evidence of active bRSV infection | induction of apoptosis ([2]; HPV oncogene altered cervical cancer cell lines): specifically induce apoptosis | induction of markers of apoptosis compared with I3C ([2]; cell culture): more active than I3C | apoptosis in mouse lung: apoptosis-specific nucleosomes [3]: increased presenence of apoptosis-specific nucleosomes | tissue distribution [4]: concentrated in lung tissue
